Experimental data from article PMC10223284, “Category-Based Toxicokinetic Evaluations of Data-Poor Per- and Polyfluoroalkyl Substances (PFAS) using Gas Chromatography Coupled with Mass Spectrometry” (Toxics, 2023).
Several values for one entry are separate records, joined by “and”; a condition that tells them apart may be missing. Equal values may be shown once.

Experiment: In vitro-in vivo extrapolation (IVIVE) to Css and administered equivalent dose (AED)
Parameters: species or system human
Details: for Clhep: IVIVE, hepatocyte Clint scaled to whole-liver clearance; for AED: administered equivalent dose from LOEC and Css; for Fub: fub=fup/(B:P), Fub set to 1 if needed; for CLint: scaled with HPGL 110 mill cells/g, Vl 1596 g
Outline: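 Measured plasma protein binding (fup) and hepatocyte Clint served as IVIVE inputs to estimate human steady-state plasma concentration (Css). fup was converted to blood unbound fraction using blood:plasma partitioning, and Clint was scaled to whole-liver clearance (L/h). AEDs were derived by combining Css with published in vitro lowest-observed effective concentrations.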

[1] = Assuming 1 mg/kg/day dose rate, BW 70 kg
[2] = human steady-state plasma concentration, assuming 1 mg/kg/day dosage

Q: With `OCCC(F)(F)C(F)(F)C(F)(F)C(F)(F)F` [4:2 Fluorotelomer alcohol] as the compound, how does the Css [1] read?
A: 0.0547 mg/L and 0.21 uM

Q: What about the Clhep of the same compound?
A: 51.672 L/h

Q: What about the AED of the same compound?
A: 9.6507 mg/kg/day

Q: And the Fub?
A: 0.3055

Q: And the Css [2]?
A: 0.21 µM

Q: What about the CLint of the same compound?
A: 6620368 µL/min

Q: Which results are given for `NC(=O)C(F)(F)C(F)(F)C(F)(F)F` [Heptafluorobutyramide]?
A: Css [1]: 0.0422 mg/L and 0.20 uM; Clhep: 63.013 L/h; AED: 101.0389 mg/kg/day; Fub: 1; Css [2]: 0.20 µM; CLint: 3502422 µL/min

Q: For `OCC(F)(F)C(F)(F)C(F)(F)C(F)(F)C(F)(F)C(F)(F)C(F)(F)C(F)(F)CO` [1H,1H,10H,10H-Perfluorodecane-1,10-diol], which Css [1] is on record?
A: 0.68 mg/L and 1.47 uM

Q: What about the Clhep of the same compound?
A: 4.275 L/h

Q: And the AED?
A: 1.3619 mg/kg/day

Q: And the Fub?
A: 0.008545

Q: What about the Css [2] of the same compound?
A: 1.47 µM

Q: What about the CLint of the same compound?
A: 8753422 µL/min
